# Assay results from patent US20170081679A1, “METHODS OF IMPROVING NUCLEASE MEDIATED HOMOLOGOUS RECOMBINATION” (priority 2015, published 2017).
# “Also recorded” adds a separate entry of the source.
# Experiments:
# [1] = system: RLL-EGFP knock-in founder rabbits; assay: Germline transmission and allele distribution in embryos parented by RLL-EGFP founders; assay type: in vivo, rabbit
# Excerpt: (§1) At the time of submitting this manuscript, five RLL-EGFP founders, three from the RS-1 treatment group, two from the non-treatment group, have reached sexual maturity. We bred these RLL-EGFP founder animals with WT counterparts.
# To ultimately determine the frequencies of different types of alleles (i.e. WT, indel and knock-in) in the germ cells of knock-in animals, we used WT animals to breed with five RLL knock-in founders, 2 derived without RS-1 treatment and the other 3 with RS-1 treatment. Embryos were produced from founders of the RS-1 treated group (n=72) and the non-treated group (n=66), sequenced, and categorized as WT, indel, or knock-in based on the allele sequence (FIG. 2I). Similar percentage of WT alleles (17 vs. 18%) are found between these two groups. […] It appears that knock-in events take place at the expense of KO because the overall mutation rates (indel+knock-in) were similar between these two groups.
# [2] = system: rabbit embryos (rbApoAI locus); assay: TALEN mediated knock-in of hApoAII to rbApoAI locus in embryos in vitro; assay type: cell-based; conditions: RS-1 7.5 μM, control 7%
# Excerpt: In another embodiment, we tested the effects of RS-1 in a TALEN mediated knock-in system. We designed and validated TALEN pairs targeting rbApoAI locus for knocking in the hApoAII coding sequence (FIG. 2B).
# [3] = system: founder rabbits; assay: Health and reproduction of founder animals; assay type: in vivo
# Excerpt: as §1
# In sum, RS-1 is effective on improving knock-in rates in both the TALEN and the Cas9 mediated genome editing systems.
# [4] = system: rabbit embryos (ROSA26 like locus, RLL); assay: Cas9 mediated RLL-EGFP knock-in in rabbit embryos in vitro; assay type: cell-based
# Procedure: (§2) In one embodiment, we designed sgRNA targeting a ROSA26 like locus (RLL) in the rabbit genome (FIG. 2E). We next determined the effects of SCR7, an NHEJ inhibitor, and RS-1, an HDR enhancer on the knock-in success rates. Donor template DNAs were co-microinjected with Cas9 mRNA and sgRNA for RLL locus. After injection, the embryos were treated for 20 h in a serial concentration of SCR7: 0 μM (control), 20 μM, 40 μM, and 80 μM, or in RS-1 at 0 μM (control), 7.5 μM, and 15 μM.
# (§3) In one embodiment, we microinjected 79 embryos with RAD51 mRNA, in addition to sgRNA, Cas9 mRNA and donor DNAs (FIG. 3A). RAD51 recombinase is a key player for homologous recombination and the repair of DNA DSBs (reference 13). Since it has been reported that RS-1 stimulates RAD51 (reference 12), we reasoned that including RAD51 mRNA in the microinjection mix would yield similar improvements on the knock-in efficiency as achieved with RS-1.
# [5] = system: rabbit embryos (CFTR locus); assay: Cas9 mediated knock-in of CFTRdelF508 to rabbit CFTR locus in embryos in vitro; assay type: cell-based; conditions: CFTRdelF508, Cas9, RS-1 7.5 μM; control 13%
# Excerpt: In another embodiment, we tested the effects of RS-1 supplementation on Cas9 mediated knock-in of CFTRdelF508, the most frequent mutation type identified in human cystic fibrosis (CF) patients, to the rabbit CFTR locus (FIG. 4).
# [6] = system: rabbit embryos; assay: Embryo development (blastocyst rate) after microinjection and treatment; assay type: cell-based; conditions: 20 h; for blastocyst development: control 61.2%
# Procedure: as §2, §3
# [7] = system: rabbit RLL; assay: Cas9 mediated RLL-EGFP knock-in animal production (embryo transfer); assay type: in vivo; conditions: RS-1 7.5 μM
# Procedure: In one embodiment, we used RS-1 at 7.5 μM for the in vivo experiments. The sgRNA and donor DNA were used for knocking in EGFP to the rabbit RLL.
# In the control group, we transferred a total of 373 embryos to synchronized recipient rabbits and obtained 43 kits. Twenty-nine of these 43 kits (67%) carried indel alleles but with on knock-in alleles. Three are proven as knock-in founders after PCR and sequencing (FIG. 2A). Of note, these three knock-in founders also carry indel alleles. The overall knock-in efficiency is 0.8% calculated by total knock-in founders/total embryos transferred, or 7.0% calculated by total knock-in founders/total kits born.
# In the RS-1 treatment group (FIG. 2A), we transferred 146 embryos and obtained 38 kits, 18 of which carried indel but no knock-in alleles (47%). Similar to the in vitro results, the knock-in success rate was multifold higher than that in the control group. A total of 10 knock-in founders were produced, with the knock-in efficiency of 6.8% calculated by total knock-in founders/total embryos transferred, or 26.3% calculated by total knock-in founders/total kits born.
# [8] = system: rbApoAI locus; assay: TALEN mediated hApoAII knock-in animal production (embryo transfer); assay type: in vivo, rabbit; conditions: RS-1 treatment
# Excerpt: In another embodiment, we tested RS-1 on the TALEN system in vivo. The same TALEN pairs and donor DNAs used in the in vitro work were used to product hApoAII knock-in animals.
# Without RS-1 treatment, only one founder animal was produced out of 227 embryos transferred (FIG. 2A). The knock-in efficiency was 0.4% calculated by total knock-in founders/total embryos transferred or 6.3% calculated by total knock-in founders/total kits born.
# After RS-1 treatment, we transferred a total of 145 embryos and obtained 17 kits. Seven out of 17 kits carried indel but no knock-in alleles (41%).
compound,measurement,setting,value
O=C(Nc1ccc(Br)cc1)c1ccc(Br)c(S(=O)(=O)NCc2ccccc2)c1 [RS-1],percentage of WT alleles,"[1]; embryos (n=72) parented by founders of RS-1 treated group, other group 18%",17%
same,embryos carrying the knock-in allele (knock-in frequency at allele level),"[1]; embryos (n=72) parented by founders of RS-1 treatment group bred with WT, non-treated 14%",33%
same,germline transmitting founder animals,"[1]; three animals of RS-1 treatment group, non-treatment 50%",100%
same,percentage of embryos carrying knock-in alleles,[2],15%
same,abnormalities in founder animals,[3]; RLL-EGFP and hApoAII founders derived from RS-1 treatment,No abnormalities
same,toxic effects on overall animal health and reproduction,[3]; RS-1 treatment of embryos,does not appear to have any toxic effects
same,knock-in rate,"[4]; RS-1 7.5 μM, 20 h, control 4.8%",26.1%
same,knock-in efficiency,"[4]; RS-1 15 μM, 20 h, control 4.8%",5.4%
same,increase of knock-in efficiency,"[4]; RS-1 at optimal concentration 7.5 μM, different loci (RLL, ApoAI, CFTR), in vitro",2- to 5 fold
same,percentage of embryos carrying knock-in alleles,[5],30%
same,blastocyst development,[6]; RS-1 7.5 μM,57.6%
same,blastocyst development,[6]; RS-1 15 μM,82.2%
same,kits carrying indel but no knock-in alleles,"[7]; 18 of 38 kits, control 67%",47%
same,"knock-in efficiency, total knock-in founders/total embryos transferred","[7]; Cas9, control 0.8%",6.8%
same,"knock-in efficiency, total knock-in founders/total kits born","[7]; Cas9, control 7.0%",26.3%
same,kits carrying indel but no knock-in alleles,[8]; 7 of 17 kits,41%
same,"knock-in efficiency, total knock-in founders/total embryos transferred",[8]; control 0.4%,2.1%
same,"knock-in efficiency, total knock-in founders/total kits born",[8]; control 6.3%,17.6%
O=c1[nH]c(=S)[nH]c(N=Cc2ccccc2)c1N=Cc1ccccc1 [SCR7],effect on overall knock-in efficiency,"[4]; SCR7 20, 40, 80 μM for 20 h vs control",minimal effects; also recorded: no significant effects
same,overall knock-in efficiency,"[4]; SCR7 treatment groups 20-80 μM, 20 h, control 7.1%",7.7-9.4%
same,effect on embryo development,"[6]; SCR7 20, 40, 80 μM, judged by blastocyst rates",no effects on embryo development
same,blastocyst rate,[6]; SCR7 treatment conditions (up to 80 μM),62-72%
